Source: patent publication US9556417B2, “Reprogramming of cells to a new fate” (The Scripps Research Institute, priority 2010, dated 2017)

Assays:
Wnt/β-catenin pathway = conditions: cited from earlier work
R1 ES cells = experiment: Serum-free monolayer cardiac differentiation of ES cells, beating colonies; assay type: cell-based, mouse; conditions: early treatment window
Method: Having identified the first serum-free monolayer condition for cardiac differentiation of ES cells, we sought to test its efficacy as a platform to discover regulators of cardiomyogenesis. A collection of approximately 200 small molecules and growth factors reported to be influential in developmental processes were assembled. R1 ES cells were grown and plated for differentiation on Matrigel in 24-well plates using the media and growth factors described above. The screening collection was then added and removed from each well at specific time points in order to account for different developmental time windows. The collection was screened at days 0-2, 2-5, and 5-7.
Cells are plated at a density of 200,000 cells/well of a 6-well plate in 2.5 ml of ESGM. 6-well plates are coated overnight at 4° C. with 1 ml of Matrigel (BD Bioscience) diluted 50× from stock concentration. 24 hours after plating, or after sufficient colony size was achieved, cells are switched into chemically defined medium (CDM) and treated with 4 uM BIO (Calbiochem) and 20 ng/ml BMP-4 (R&D). CDM contains RPMI 1640, 0.5×N2, 1×B27 (without Vitamin A), 0.5× Glutamax, 0.55 mM beta-mercaptoethanol, 1× non-essential amino acids, 1× nucleosides. At Day 2, medium is changed, and again CDM containing 4 uM BIO with 20 ng/ml BMP-4 is added to the cells. At Day 5, cells are washed once with PBS and medium is changed to CDM containing 100 ng/ml Dkk-1 (R&D). At Day 7, medium is changed, and again CDM containing 100 ng/ml Dkk-1 is added to the cells. At Day 10, cells are trypsinized (0.05% trypsin) (Approximately 5 minutes at 37° C., or until cells begin to detach) and replated onto gelatin coated 6-well plates in CDM with no additional growth factors. By this time, the cells will have formed tight colonies that will be difficult to disrupt (Supplementary FIG. 2b). […] The trypsin is used primarily to detach the cells rather than to dissociate them to a single cell suspension. It is preferable for the colonies to remain intact. The trypsin is briefly quenched with MEF media, cells are centrifuged, and resuspended in CDM for plating. Medium is refreshed as needed to remove dead cells and debris (every 1 to 2 days).

Brachyury-EGFP ES cell = experiment: FACS analysis of mesodermal markers (Brachyury-GFP, Flk-1); assay type: cell-based, mouse; conditions: treated day 0-2, harvested day 4.5
Method: To ascertain what role calcium and cAMP might be playing in this early stage of cardiac differentiation, FACS was carried out using two markers involved in mesodermal fates. Specifically, a Brachyury-EGFP ES cell (a gift from the Keller lab) was used to identify cells progressing to a primitive streak type population. Further, cells were stained using a Flk-1 antibody to further delineate axial location of the primitive streak type cells. Briefly, cells were treated with small molecules for day 0-2, and harvested at day 4.5 for analysis.
Cells were harvested into a single cell suspension by treatment with 0.05% trypsin, quenched with serum containing medium, and resuspended in FACS buffer: lx PBS (Ca/Mg^2+ free), 1 mM EDTA, 25 mM HEPES pH 7.0, 1% Fetal Bovine Serum. Cells were then filtered with […], and stored at 4° C. until analysis.

[1] = system: tail-tip fibroblasts (TTFs); experiment: Neural transdifferentiation of TTFs in presence of JAK inhibitor; assay type: cell-based, mouse; conditions: JAK inhibitor 1 0.5 μM from day 4 onward
Method: For TTF reprogramming, Lentivirus supernatants were produced and harvested as previously described (Takahashi K. et al. Cell 131(5):861-872 (2007)). Briefly, 293T cells (Invitrogen) were plated at 5×10^6 cells per 100 mm dish and incubated overnight in a 37° C. incubator. Cells were transfected with 4 μg pHAGE2-TetOminiCMV-STEMCCA (29) or FUW-M2rtTA (Addgene) along with packaging mix (1 μg psPAX2 and 3 μg pMD2.G) (Addgene) and FuGENE 6 Transfection Reagent (Roche), according to the manufacturer's instructions. The cells were then cultured in a 32° C. degree incubator, after which supernatants were collected at 48 and 72 hours (post-transfection) and filtered through a 0.45 μm filter (Millipore) before use. TTFs were prepared as previously described (Takahashi, K., et al., Cell 126(4):663-676 (2006)). Briefly, tails (only the final third) were cut into small pieces (less than 0.5 cm) and grown on gelatine-coated plates in MEF medium. Cells that migrated out of the tissue were transferred into new dish and used after one more passage (p3). After two rounds of transduction with STEMCCA and rtTA expressing virus, cells were plated on Geltrex-coated dishes at 2×10^4 cells/cm^2 and reprogrammed as described above. JAK inhibitor 1 (Calbiochem) was added from day 4 onward at 0.5 μM during TTF transdifferentiation. […]

Cc1ccc2nc(NC(=O)CSc3nc4c(c(=O)n3-c3ccccc3)SCC4)sc2c1 [IWP-2, 2-(3,4,6,7-tetrahydro-4-oxo-3-phenylthieno[3,2-d]pyrimidin-2-ylthio)-N-(6-methylbenzo[d]thiazol-2-yl)acetamide]
IC50 (Wnt/β-catenin pathway): 27 nM

CC(C)NCC(O)COc1cccc2ccccc12 (centres unmarked) [propranolol]
cardiac differentiation / percentage of beating colonies (R1 ES cells): greatly decreased cardiac potential
Flk-1 positive portion of GFP+ cells (Brachyury-EGFP ES cell): decreased

CC(C)(C)c1nc2c3ccc(F)cc3c3c(=O)[nH]ccc3c2[nH]1 [JAK inhibitor1]
Pax6 expression of colonies [1]: all remaining colonies homogeneously expressed Pax6
decrease in number of colonies [1]: around 30%
